Test results reported in ChEMBL document CHEMBL1165922, “Vitamin D receptor agonist/histone deacetylase inhibitor molecular hybrids” (Bioorg Med Chem, 2010).
Calls of active or inactive are those of the source. The rule behind the calls is not given here.

Assays:
Vitamin D3 receptor = molecular target: T1, Vitamin D3 receptor (Homo sapiens, UniProt P11473)
T1 sequence (P11473 whole entry): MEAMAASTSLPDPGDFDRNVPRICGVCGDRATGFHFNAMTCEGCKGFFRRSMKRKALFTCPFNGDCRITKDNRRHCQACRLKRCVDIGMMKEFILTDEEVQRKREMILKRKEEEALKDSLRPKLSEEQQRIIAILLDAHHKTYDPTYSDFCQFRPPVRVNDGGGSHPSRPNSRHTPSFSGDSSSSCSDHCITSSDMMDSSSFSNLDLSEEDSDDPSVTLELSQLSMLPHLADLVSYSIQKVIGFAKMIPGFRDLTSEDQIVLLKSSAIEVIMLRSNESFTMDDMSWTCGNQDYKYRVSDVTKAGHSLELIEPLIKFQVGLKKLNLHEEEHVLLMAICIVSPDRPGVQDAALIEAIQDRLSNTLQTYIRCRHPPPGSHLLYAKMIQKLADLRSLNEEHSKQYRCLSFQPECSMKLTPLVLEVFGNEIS
Description: Binding affinity to VDR ligand binding domain by fluorescence polarization competition assay

Histone deacetylase 3 = Histone deacetylase 3 (Homo sapiens, UniProt O15379); experiment: Inhibition of HDAC3 after 10 mins by fluorometric assay
[1] = molecular target: T2, Protein deacetylase HDAC6 (Homo sapiens, UniProt Q9UBN7); experiment: Inhibition of HDAC6 after 10 mins by fluorometric assay
T2 sequence (Q9UBN7 whole entry): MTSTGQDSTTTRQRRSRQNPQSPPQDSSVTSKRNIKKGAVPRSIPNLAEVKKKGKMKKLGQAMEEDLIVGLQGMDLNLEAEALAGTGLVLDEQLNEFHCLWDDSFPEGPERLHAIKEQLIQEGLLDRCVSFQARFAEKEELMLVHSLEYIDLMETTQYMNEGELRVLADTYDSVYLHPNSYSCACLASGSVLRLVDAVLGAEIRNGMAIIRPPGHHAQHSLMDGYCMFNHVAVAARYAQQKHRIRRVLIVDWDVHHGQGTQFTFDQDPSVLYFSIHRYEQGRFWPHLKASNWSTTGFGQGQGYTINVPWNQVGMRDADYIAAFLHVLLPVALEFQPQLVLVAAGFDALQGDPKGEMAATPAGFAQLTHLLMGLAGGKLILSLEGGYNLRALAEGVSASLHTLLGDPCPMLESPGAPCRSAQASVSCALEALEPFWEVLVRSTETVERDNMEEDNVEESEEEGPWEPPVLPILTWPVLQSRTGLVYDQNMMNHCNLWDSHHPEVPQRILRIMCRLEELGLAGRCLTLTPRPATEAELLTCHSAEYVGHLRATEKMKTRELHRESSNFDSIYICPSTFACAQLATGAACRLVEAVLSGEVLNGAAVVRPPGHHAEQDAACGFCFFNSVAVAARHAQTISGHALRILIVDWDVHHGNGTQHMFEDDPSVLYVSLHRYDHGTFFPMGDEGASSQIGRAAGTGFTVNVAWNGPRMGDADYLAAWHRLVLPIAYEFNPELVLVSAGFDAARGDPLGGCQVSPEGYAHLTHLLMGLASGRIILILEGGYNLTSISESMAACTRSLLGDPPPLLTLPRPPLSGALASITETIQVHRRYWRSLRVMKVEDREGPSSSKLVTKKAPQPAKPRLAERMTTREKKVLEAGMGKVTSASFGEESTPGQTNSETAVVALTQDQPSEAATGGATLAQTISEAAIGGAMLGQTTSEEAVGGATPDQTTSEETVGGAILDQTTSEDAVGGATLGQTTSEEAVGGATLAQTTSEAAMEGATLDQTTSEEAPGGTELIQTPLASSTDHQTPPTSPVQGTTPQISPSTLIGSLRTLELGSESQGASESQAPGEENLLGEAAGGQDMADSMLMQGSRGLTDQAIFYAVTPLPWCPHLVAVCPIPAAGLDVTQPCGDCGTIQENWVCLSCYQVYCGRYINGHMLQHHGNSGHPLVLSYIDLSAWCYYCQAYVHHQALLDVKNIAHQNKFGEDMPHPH

Mus musculus [2] = experiment: Toxicity in FVB mouse assessed as calcium level in blood at 1200 pmol/day administered via osmotic pump for 6 to 7 days measured on day 7 by microchemistry (RVb = […] mmol/L); type: organism-based; details: in vivo, other
Mus musculus [3] = experiment: Toxicity in FVB mouse assessed as calcium level in blood at 240 pmol/day administered via osmotic pump for 6 to 7 days measured on day 4 by microchemistry (RVb = 2.11 mmol/L); type: organism-based; details: in vivo, other
Mus musculus [4] = experiment: Toxicity in FVB mouse assessed as calcium level in blood at 1200 pmol/day administered via osmotic pump for 6 to 7 days measured on day 4 by microchemistry (RVb = 2.11 mmol/L); type: organism-based; details: in vivo, other
Mus musculus [5] = experiment: Toxicity in FVB mouse assessed as calcium level in blood at 240 pmol/day administered via osmotic pump for 6 to 7 days measured on day 7 by microchemistry (RVb = […] mmol/L); type: organism-based; details: in vivo, other
Mus musculus [6] = experiment: Toxicity in FVB mouse assessed as calcium level in blood at 240 pmol/day administered via osmotic pump for 6 to 7 days measured on day 3 by microchemistry (RVb = 2.24 mmol/L); type: organism-based; details: in vivo, other
Mus musculus [7] = experiment: Toxicity in FVB mouse assessed as calcium level in blood at 1200 pmol/day administered via osmotic pump for 6 to 7 days measured on day 3 by microchemistry (RVb = 2.24 mmol/L); type: organism-based; details: in vivo, other
Mus musculus [8] = experiment: Toxicity in FVB mouse assessed as calcium level in blood at 240 pmol/day administered via osmotic pump for 6 to 7 days measured on day 6 by microchemistry (RVb = 2 mmol/L); type: organism-based; details: in vivo, other
Mus musculus [9] = experiment: Toxicity in FVB mouse assessed as calcium level in blood at 1200 pmol/day administered via osmotic pump for 6 to 7 days measured on day 6 by microchemistry (RVb = 2 mmol/L); type: organism-based; details: in vivo, other
AT84 = experiment: Antiproliferative activity against mouse AT84 cells at 100 to 500 nM after 48 hrs by EdU incorporation assay; type: functional, cell-based
Histone deacetylase 2 = Histone deacetylase 2 (Homo sapiens, UniProt Q92769); experiment: Inhibition of HDAC2 after 10 mins by fluorometric assay
Mus musculus [10] = experiment: Toxicity in FVB mouse assessed as calcium level in blood at 24 pmol/day administered via osmotic pump for 6 to 7 days measured on day 6 by microchemistry (RVb = 2 mmol/L); type: organism-based; details: in vivo, other
Mus musculus [11] = experiment: Toxicity in FVB mouse assessed as calcium level in blood at 24 pmol/day administered via osmotic pump for 6 to 7 days measured on day 7 by microchemistry (RVb = […] mmol/L); type: organism-based; details: in vivo, other
Mus musculus [12] = experiment: Toxicity in FVB mouse assessed as calcium level in blood at 24 pmol/day administered via osmotic pump for 6 to 7 days measured on day 3 by microchemistry (RVb = 2.24 mmol/L); type: organism-based; details: in vivo, other
Mus musculus [13] = experiment: Toxicity in FVB mouse assessed as calcium level in blood at 12 pmol/day administered via osmotic pump for 6 to 7 days measured on day 4 by microchemistry (RVb = 2.11 mmol/L); type: organism-based; details: in vivo, other
Mus musculus [14] = experiment: Toxicity in FVB mouse assessed as calcium level in blood at 24 pmol/day administered via osmotic pump for 6 to 7 days measured on day 4 by microchemistry (RVb = 2.11 mmol/L); type: organism-based; details: in vivo, other
Mus musculus [15] = experiment: Toxicity in FVB mouse assessed as calcium level in blood at 48 pmol/day administered via osmotic pump for 6 to 7 days measured on day 6 by microchemistry (RVb = 2 mmol/L); type: organism-based; details: in vivo, other
Mus musculus [16] = experiment: Toxicity in FVB mouse assessed as calcium level in blood at 12 pmol/day administered via osmotic pump for 6 to 7 days measured on day 3 by microchemistry (RVb = 2.24 mmol/L); type: organism-based; details: in vivo, other
Mus musculus [17] = experiment: Toxicity in FVB mouse assessed as calcium level in blood at 48 pmol/day administered via osmotic pump for 6 to 7 days measured on day 3 by microchemistry (RVb = 2.24 mmol/L); type: organism-based; details: in vivo, other
Mus musculus [18] = experiment: Toxicity in FVB mouse assessed as calcium level in blood at 12 pmol/day administered via osmotic pump for 6 to 7 days measured on day 6 by microchemistry (RVb = 2 mmol/L); type: organism-based; details: in vivo, other
Mus musculus [19] = experiment: Toxicity in FVB mouse assessed as calcium level in blood at 12 pmol/day administered via osmotic pump for 6 to 7 days measured on day 7 by microchemistry (RVb = […] mmol/L); type: organism-based; details: in vivo, other
[20] = Ratio of compound to calcitriol antiproliferative activity against mouse AT84 cells; type: functional

Sequence of Histone deacetylase 3 (O15379 whole entry): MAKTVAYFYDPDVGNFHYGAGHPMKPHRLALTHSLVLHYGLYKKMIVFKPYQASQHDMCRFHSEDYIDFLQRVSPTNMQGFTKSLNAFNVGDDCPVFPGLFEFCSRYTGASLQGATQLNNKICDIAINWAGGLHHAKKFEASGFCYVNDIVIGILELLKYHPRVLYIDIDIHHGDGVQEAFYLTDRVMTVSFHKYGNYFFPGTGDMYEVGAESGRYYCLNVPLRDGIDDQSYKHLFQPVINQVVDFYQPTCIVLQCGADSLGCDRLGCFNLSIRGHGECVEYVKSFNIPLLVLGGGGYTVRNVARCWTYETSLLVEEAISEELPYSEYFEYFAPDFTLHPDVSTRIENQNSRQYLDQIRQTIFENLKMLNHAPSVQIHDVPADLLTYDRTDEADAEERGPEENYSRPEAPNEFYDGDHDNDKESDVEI
Sequence of Histone deacetylase 2 (Q92769 whole entry): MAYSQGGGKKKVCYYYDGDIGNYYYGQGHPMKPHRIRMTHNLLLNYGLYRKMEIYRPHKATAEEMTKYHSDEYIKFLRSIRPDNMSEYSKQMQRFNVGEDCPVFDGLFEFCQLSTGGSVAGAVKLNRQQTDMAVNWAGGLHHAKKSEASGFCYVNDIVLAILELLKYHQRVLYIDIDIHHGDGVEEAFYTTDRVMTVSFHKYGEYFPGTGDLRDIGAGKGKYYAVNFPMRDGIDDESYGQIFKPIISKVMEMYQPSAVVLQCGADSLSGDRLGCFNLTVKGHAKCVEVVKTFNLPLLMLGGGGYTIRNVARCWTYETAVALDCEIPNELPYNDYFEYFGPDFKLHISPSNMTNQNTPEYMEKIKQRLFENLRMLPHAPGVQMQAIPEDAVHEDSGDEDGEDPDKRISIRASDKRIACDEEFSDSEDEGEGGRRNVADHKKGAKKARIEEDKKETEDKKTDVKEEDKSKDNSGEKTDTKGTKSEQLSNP

Compound `C[C@H](CCCCNS(N)(=O)=O)[C@H]1CC[C@H]2/C(=C/C=C3C[C@@H](O)C[C@H](O)C3)CCC[C@]12C` has an IC50 (Vitamin D3 receptor) of 0.28 µM, an IC50 (Histone deacetylase 3) of 470 µM and an IC50 [1] of 50.4 µM.

With `C[C@H](CCCCNS(=O)(=O)c1ccccc1)[C@H]1CC[C@H]2/C(=C/C=C3C[C@@H](O)C[C@H](O)C3)CCC[C@]12C` the Activity (Mus musculus [2]) was 2.07 mmol/L, the Activity (Mus musculus [3]) was 2.05 mmol/L and the IC50 (Vitamin D3 receptor) was 0.015 µM. The IC50 (Histone deacetylase 3) was 508 µM, the Activity (Mus musculus [4]) was 2.03 mmol/L and the Activity (Mus musculus [5]) was 1.95 mmol/L. It also gave an IC50 [1] of 293 µM.

With `C[C@H](CCCC(=O)NO)[C@H]1CC[C@H]2/C(=C/C=C3C[C@@H](O)C[C@H](O)C3)CCC[C@]12C` the IC50 (Histone deacetylase 3) was 3.2 µM and the IC50 [1] was 9.3 µM.

In the case of `C[C@H](CCCCNS(C)(=O)=O)[C@H]1CC[C@H]2/C(=C/C=C3C[C@@H](O)C[C@H](O)C3)CCC[C@]12C`, the Activity (Mus musculus [6]) is reported as 1.88 mmol/L, the Activity (Mus musculus [7]) is reported as 2.01 mmol/L and the IC50 (Vitamin D3 receptor) is reported as 0.321 µM. For the same compound, the Activity (Mus musculus [8]) was 2.22 mmol/L, the IC50 (Histone deacetylase 3) was 718 µM and the Activity (Mus musculus [9]) was 1.92 mmol/L. The IC50 [1] was 191 µM.

In the case of `C[C@H](CCCCC(=O)Nc1ccccc1N)[C@H]1CC[C@H]2/C(=C/C=C3C[C@@H](O)C[C@H](O)C3)CCC[C@]12C`, the Activity (Mus musculus [2]) is reported as 2.09 mmol/L, the Activity (Mus musculus [3]) is reported as 1.97 mmol/L and the IC50 (Vitamin D3 receptor) is reported as 0.185 µM. For the same compound, the Activity (AT84) was “Active”, the IC50 (Histone deacetylase 2) was 189 µM and the IC50 (Histone deacetylase 3) was 104 µM. For the same compound, the Activity (Mus musculus [4]) was 2.04 mmol/L, the Activity (Mus musculus [5]) was 1.8 mmol/L and the IC50 [1] was 81.1 µM.

Work on `C=C1/C(=C\C=C2/CCC[C@]3(C)[C@@H]([C@H](C)CCCC(C)(C)O)CC[C@@H]23)C[C@@H](O)C[C@@H]1O` [CALCITRIOL] yielded an Activity (Mus musculus [10]) of 4.43 mmol/L, an Activity (Mus musculus [11]) of 3.21 mmol/L and an Activity (Mus musculus [12]) of 3.15 mmol/L. The Activity (Mus musculus [13]) was 2.59 mmol/L, the Activity (Mus musculus [14]) was 2.97 mmol/L and the Activity (Mus musculus [15]) was “Toxic”. For the same compound, the Activity (Mus musculus [16]) was 2.05 mmol/L, the Activity (Mus musculus [17]) was 3.07 mmol/L and the Activity (Mus musculus [18]) was 2.03 mmol/L. For the same compound, the Activity (Mus musculus [19]) was 2.62 mmol/L.

`C[C@H](CCCCCNS(N)(=O)=O)[C@H]1CC[C@H]2/C(=C/C=C3C[C@@H](O)C[C@H](O)C3)CCC[C@]12C` showed an IC50 (Vitamin D3 receptor) of 0.196 µM, an IC50 (Histone deacetylase 3) of 605 µM and an IC50 [1] of 31.6 µM.

Compound `C[C@H](CCCCC(=O)NO)[C@H]1CC[C@H]2/C(=C/C=C3C[C@@H](O)C[C@H](O)C3)CCC[C@]12C` has an Activity (Mus musculus [6]) of 1.93 mmol/L, an Activity (Mus musculus [7]) of 2.03 mmol/L and an IC50 (Vitamin D3 receptor) of 0.248 µM. For the same compound, the Activity (AT84) was “Active”, the IC50 (Histone deacetylase 2) was 16.5 µM and the Activity (Mus musculus [8]) was 1.93 mmol/L. For the same compound, the Ratio [20] was 20, the IC50 (Histone deacetylase 3) was 14.5 µM and the Activity (Mus musculus [9]) was 2.26 mmol/L. The IC50 [1] was 3 µM.
